In patent US11827690B2, “ApoC-II mimetic peptides” (THE UNITED STATES OF AMERICA, as represented by the …, priority 2017, dated 2023):

Key:
[1] = tested on: chylomicrons isolated from human plasma; experiment: ApoC-III displacement study in chylomicrons isolated from human plasma; assay type: binding
Description: VLDL or chylomicrons isolated from human plasma were incubated with an apoC-II mimetic peptide for 1 hour at 37° C. and washed 3 times with PBS using spin filter with 100 kDa cutoff membrane. Supernatants were brought to the original volume with PBS and loaded to 4-12% Bis-TRIS SDS PAGE gel. ApoC-I, apoC-II, apoC-III, and apoE bands were identified by their corresponding size.

LPL = target: T1, LPL (Bos taurus, UniProt P11151); experiment: addition of exogenous LPL to serum samples collected after IP injection with Intralipid; assay type: biochemical
T1 sequence (P11151 29-478): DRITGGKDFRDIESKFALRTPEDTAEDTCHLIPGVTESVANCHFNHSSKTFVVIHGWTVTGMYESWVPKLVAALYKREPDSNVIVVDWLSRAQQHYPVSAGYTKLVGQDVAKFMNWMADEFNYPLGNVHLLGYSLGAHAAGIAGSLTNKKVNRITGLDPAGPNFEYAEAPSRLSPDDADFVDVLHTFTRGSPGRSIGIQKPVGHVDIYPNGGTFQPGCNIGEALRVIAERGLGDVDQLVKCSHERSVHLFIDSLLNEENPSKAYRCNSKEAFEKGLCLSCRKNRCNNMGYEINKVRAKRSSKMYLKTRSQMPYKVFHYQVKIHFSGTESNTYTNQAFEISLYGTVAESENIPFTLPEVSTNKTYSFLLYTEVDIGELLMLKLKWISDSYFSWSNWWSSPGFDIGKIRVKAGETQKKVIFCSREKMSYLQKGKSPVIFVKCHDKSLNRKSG

C57BL/6 mice (wild-type) = experiment: post-prandial serum TG in C57BL/6 mice after oral gavage with vegetable oil; assay type: in vivo; conditions: 1 μmoL/kg IP or SQ 30 min before gavage with vegetable oil (10 μL/gram)
Description: (§1) C57Bl/6 mice (wild-type), apoC-II knockout (apoC-II KO) mice, and apoC-III transgenic mice were used for in vivo study. The C57Bl/6 mice (wild-type) were purchased from Taconic Biosciences Inc. The apoC-II KO mice were created as described in Sakurai et al., J Pharmacol Exp Ther 356:341-353, 2016. The apoC-III transgenic mice were generated by overexpressing human apoC-III in C57Bl/6 mice. See Qu et al., J. Lipid Res. 48:1476-1487, 2007.
(§2) Mice were fasted overnight (approximately 12 hours) before the study and 6 hours during the study, the next day. The apoC-II mimetic peptides were synthetically produced and free of biological contamination (not available as FDA approved compounds/treatment). Peptides were produced and used in sterile conditions and filtered by 0.2 nm filter before injections in a single dose 1-10 μmol/kg body weight (B. W.) administered either subcutaneous injection (S.Q. or S.C.), intraperitoneal injection (I.P.) or intravenous injection (I.V.) (in a sterile, pharmaceutical grade PBS solution at a volume ≤200 μL) as described in Sakurai et al., J Pharmacol Exp Ther 356:341-353, 2016.
In some experiments, each animal received 20% Intralipid (FDA approved, Fresenius Kabi, Uppsala, Sweden) in a single dose either by oral gavage (using special sterile single-use non-toxic animal feeding needles) in a dose 10-20 μL/gram body weight (B.W.) (Tuzcu et al. Drug Chem Toxicol 37: 261-267, 2014; Kusminski et al. Nature Medicine 18: 1539-1549, 2012), or by intraperitoneal injection in a single bolus of 0.1-1.0 mL (Mahadero et al. American J Surgery 164: 45-50, 1992), or by intragastric administration of a dietetic commercially-available liquid oil (food grade vegetable, corn, soy or olive oil) in a single dose 10-20 μL/gram body weight. These oils were a source of TG—when absorbed TG tends to be broken down within 3 h (peak in 30 min) (Kritchevsky Nutritional Biochemistry 6:172-178, 1995). Blood samples (20-30 μL) were obtained from the retro-orbital plexus at time points: −1 h, 0 h, 1 h, 3 h, 6 h and 24 h for measurements of lipids. Mice were returned to metabolic cages after the 6 h time point where the food was put back. Once the study was completed (after 24 hours from the fat administration), mice were euthanized and organs collected.

apoC-III transgenic mice = experiment: serum TG of apoC-III transgenic mice after Intralipid injection; assay type: in vivo; conditions: peptide IP 1 hour after Intralipid, 5 and 10 μmole/kg, FIG. 39
Description: as §1
as §2, with “2016. […]” for “2016.”

[2] = target: T2, LPL inhibited by apoC-III (Bos taurus, UniProt P11151); experiment: LPL assay using human apoC-II deficient plasma as substrate with recombinant apoC-III; assay type: biochemical; conditions: 25 μM apoC-III, FIG. 50
T2 sequence (P11151 29-478): T1 sequence (P11151 29-478)
Description: LPL activity assay: 10 μL of Intralipid, human plasma sample, or mouse plasma sample was added in each well using repeater pipette. 10 μL (or 15 μL in the wells with no LPL control) of PBS and 10 μL of 1% BSA was added in each well using repeater pipette. 10 μL of peptides were added to corresponding wells in vertical triplicates (lowest concentration is on a left, highest is on the right). The plate was spun down at 1000 RPM for 10 seconds to mix and to remove the solutions from the wall of each well. The plate was put on ice and 5 μL of LPL was added using repeater pipette. The plate was spun down again at 1000 RPM for 10 seconds. The plate was covered and put back on ice for an incubation of 30 min. The plate was then moved to 37° C. and incubated for 1 hour.
Free fatty acids (NEFA) assay: 45 μL of 5 nmoL standard and 0 nmoL control (0.2% BSA) were added to corresponding wells. 225 μL of reagent A was added in each well using the reagent tray and 12-channel pipette. The plate was incubated for 10 min before 75 μL of reagent B was added to each well using the reagent tray and 12-channel pipette. The plate was not covered due to the high volume. The absorbance at 550 nm and 660 nm was measured.
LPL assay was performed using Intralipid, high TG human plasma (1:50 dilution), or apoC-III transgenic mouse plasma (1:50 dilution). When Intralipid was used as a substrate, 25 or 50 μM recombinant ApoC-III was added as an inhibitor. When the high TG human plasma was used as a substrate, 25 or 50 μM recombinant ApoC-III was added as an inhibitor with or without pre-incubation at 37° C. for 1 hour. An apoC-II mimetic peptide was added at various concentrations.

apoC-II knockout mice = experiment: plasma lipids of apoC-II knockout mice after peptide injection; assay type: in vivo
[3] = SEC-FPLC, 1 μmole/kg, 6 hours after injection, FIG. 41

Sequence | affinity for chylomicrons compared with the apolipoproteins [1] | lipoprotein particles from treated mice as substrates for LPL (LPL) | post-prandial TG rise (C57BL/6 mice (wild-type)) | serum TG increase after Intralipid injection (apoC-III transgenic mice) | effect on inhibition of LPL by apoC-III [2] | time of maximum reduction of plasma TG (apoC-II knockout mice; 0.1 μmol/kg intraperitoneally, after the peptide injection) | plasma TG (apoC-II knockout mice; 0.1 μmol/kg of body weight intraperitoneally, FIG. 53) | level of HDL as measured by the phospholipid level (apoC-II knockout mice; [3]) | level of VLDL as measured by the phospholipid level (apoC-II knockout mice; [3]) | level of TG in the VLDL pool (apoC-II knockout mice; SEC-FPLC, 1 μmole/kg, FIG. 42) | plasma TG (apoC-II knockout mice; intraperitoneal injection) | plasma TG (apoC-II knockout mice; repeat IP injection at 24 h intervals for 6 days, 0.25 and 1 μmole/kg, FIG. 40) | plasma TG (apoC-II knockout mice; subcutaneous injection)
DWLKAFYDKVAEKLKEAFPAMSTYTGIFTDQVLSVLKGEE (listed as Homo sapiens) [apoC-II-a, excluded from the claimed peptides] | higher affinity for chylomicrons than the apolipoproteins | better substrates for LPL | almost completely blunted | – | – | – | – | – | – | – | – | – | –
DYLKEVFEKLRDLYEKFTPAVSTYTGIFTDQVLSVLKGEE [Delta6PV] | – | – | – | the TG increase was significantly reduced | overcame the inhibitory effect of apoC-III and facilitated lipolysis | about 6 hours | rapid reduction of plasma TG | increased | decreased | decreased | rapid and marked reduction of plasma TG | marked and lasting reduction of plasma TG | rapid and marked reduction of plasma TG
